Test results reported in US20080176787A1, “Parathyroid hormone analogues and methods of use” (priority 2005, published 2008).
Positions of bridges follow the written chain, without caps; N, C: chain ends. Residues, ends and D or L forms follow the SMILES beside them.

Experiments:
[1] = test system: post-menopausal women with low bone mineral density; assay: Dose/weight cutoff subgroup analysis and modeling of Phase II 30 and 45 μg cohorts; format: in vivo, human; conditions: for Headache / HyperCa > 2.65 / HyperCa > 2.75 / N + H / Nausea: unit assumed
Procedure: The effect of the dose optimization strategy was evaluated by performing subgroup analyses using actual data from the 30 and 45 μg cohorts of the study (i.e. creation of a new subgroup by combining all patients below the weight cutoff from the 30 μg dose group with all patients above the weight cutoff from the 45 μg dose group, shown in the table below).
A variety of new subgroups were created out of the patients who participated in the Phase II clinical trial. The groups from Phase II are shown above, where each group received a single dose, either 7.5 μg, 15 μg, 30 μg, 45 μg, or placebo. The 30 μg and 45 μg dose groups were re-grouped, according to the weight of the patient, and over 100 new sub-groups were created. This approach of creating new sub-groups out of dosages which are relatively close to each other, is a novel way of conducting Phase II studies.
For the 105 patients who were originally given 30 or 45 μg, new groups were created by utilizing multiple weight cut-offs in increments of 0.5 kg. For example, one new group had the weight cut-off at 59 kg, meaning that every patient from the original low dose (30 μg) group who weighed less than 59 kg and every patient who weighed more than 59 kg from the original high dose (45 μg) group formed a new cohort. This new cohort represents a dose/weight cut-off of 59 kg, a group in which patients weighing less than 59 kg receive the low dose (30 μg) and patients weighing more than 59 kg receive the high dose (45 μg). Another example can be illustrated using a weight cutoff of 68 kg. Such a group would include all those patients who weigh less than 68 kg and who originally received the low dose (30 μg) as well as all those patients who weigh more than 68 kg and who originally received the high dose (45 μg). By using this method, over 100 separate cohorts were created by altering the dose/weight cut-off in increments of 0.5 kg. A summary of the data generated by these new dose/weight cut-off cohorts, using 68 kg and 59 kg as the dose/weight cut-off, is shown in the table below.
The table above illustrates the actual clinical profile obtained for two dose/weight cutoffs (59 kg which produces a higher exposure profile since more patients receive the higher dose and 68 kg in which more patients receive the lower dose). […] One problem with simple subgroup analysis is that endpoints with a small number of events can skew the observed profile because of large changes in incidence when one of these events moves from one side of the weight cutoff to the other. Therefore, the dose/weight cutoff methodology was applied systematically to the data from the 30 and 45 μg dose groups starting at the lowest weight patient in the study (corresponds to the 45 μg profile because everyone receives the high dose) and increasing the cutoff by 0.5 kg increments through 100 kg (corresponding to the 30 μg profile because everyone receives the low dose). The multiple cutoff profiles thus obtained when graphed can then smooth out the effect of individual events as illustrated for the effect on hypercalcemia. The effect of weight cutoff on clinical profile can then be modeled to eliminate the skewing effects of individual data points as illustrated in FIG. 37-40. This approach has been applied to primary and secondary endpoints in the study.
An important benefit of this modeling is that it is possible to project a clinical profile for a specific weight cutoff/dose exposure window with a high degree of accuracy since the effect of individual events is eliminated. The anticipated hypercalcemia and lumbar spine BMD profile for a 68 kg cutoff is illustrated in the table below, which compares the modeled hypercalcemia and lumbar spine BMD changes and the actual Phase II data for the 68 kg weight cutoff. It will also be possible to model the effects of even narrower exposure windows by using multiple dose cutoffs and different doses.

[2] = test system: post-menopausal women with low bone mineral density; assay: Phase II clinical study of subcutaneous Ostabolin-C in post-menopausal women with low BMD (BMD, bone markers, serum calcium, side effects); conditions: for Sitting HR / Headache / HyperCa > 2.65 / HyperCa > 2.75 / N + H / Nausea: 4 months; for Headache / HyperCa > 2.65 / HyperCa > 2.75 / N + H / Nausea: unit assumed
Description: A four month Phase II clinical study was undertaken to investigate the safety, tolerability and efficacy of Ostabolin-C™ in post-menopausal women with low bone mineral density (BMD). […] The clinical protocol is a 16-week phase II randomized, double-blind, placebo-controlled, parallel group, dose finding study to investigate the safety, tolerability and efficacy of Ostabolin-C™ in post-menopausal women with low bone mineral density (BMD). In this study, 261 patients underwent four months of daily dosing of placebo and four active groups. The active groups included daily administration of Ostabolin-C™ in doses of 7.5, 15, 30, and 45 μg. Ostabolin-C™ is formulated as a clear, colorless liquid provided in pre-filled syringes and injected subcutaneously (SC). Subjects self-administer SC 0.1 mL injections of their assigned dose of Ostabolin-C™ 7.5, 15, 30, and 45 μg or placebo daily for 16 weeks in rotating quadrants of the abdomen. The subjects were post-menopausal women (for at least 5 years) with moderate osteoporosis.
The key endpoints for the study include change in mean BMD at the lumbar spine, as assessed by dual energy x-ray absorptiometry (DEXA), and measured by change from the Baseline visit. The Baseline visit is the first visit of the patient, before undergoing any treatment. Secondary efficacy endpoints include the following, as measured by change from Baseline visit:
DEXA: Bone formation and resorption markers: • Mean femoral neck BMD • Serum osteocalcin • Mean trochanter BMD • Serum amino terminal pro-peptide of type 1 pro-collagen (P1NP) • Mean total hip BMD • Mean radial BMD (distal and midshaft) • Bone specific alkaline phosphatase (BSAP) • Bone mineral content (BMC) • Serum C-telopeptide (CTx) • Bone area • Serum N-telopeptide (NTx)

[3] = test system: Gonad intact young Cynomolgus monkeys; assay: 6-week daily study in gonad intact young cynomolgus monkeys: % cortical porosity; format: in vivo; conditions: Tibial Mid-Diaphysis, 6 weeks
Description: Comparative data regarding increase in cortical bone porosity in monkey subjects using Ostabolin C at a variety of doses and using the prior art PTHs 1-34 is shown below.

SMILES: CC[C@H](C)[C@H](NC(=O)[C@H](CCC(=O)O)NC(=O)[C@H](CO)NC(=O)[C@@H](NC(=O)[C@@H](N)CO)C(C)C)C(=O)N[C@@H](CCC(N)=O)C(=O)N[C@@H](CC(C)C)C(=O)N[C@@H](CCSC)C(=O)N[C@@H](Cc1c[nH]cn1)C(=O)N[C@@H](CC(N)=O)C(=O)N[C@@H](CC(C)C)C(=O)NCC(=O)N[C@@H](CCCCN)C(=O)N[C@@H](Cc1c[nH]cn1)C(=O)N[C@@H](CC(C)C)C(=O)N[C@@H](CC(N)=O)C(=O)N[C@@H](CO)C(=O)N[C@@H](CCSC)C(=O)N[C@@H](CCC(=O)O)C(=O)N[C@@H](CCCN=C(N)N)C(=O)N[C@H](C(=O)N[C@H]1CCC(=O)NCCCC[C@@H](C(=O)N[C@@H](CC(C)C)C(=O)N[C@@H](CC(C)C)C(=O)N[C@@H](CCC(N)=O)C(=O)N[C@@H](CC(=O)O)C(=O)N[C@H](C(N)=O)C(C)C)NC(=O)[C@H](CCCN=C(N)N)NC(=O)[C@H](CC(C)C)NC(=O)[C@H](Cc2c[nH]c3ccccc23)NC1=O)C(C)C [Ostabolin-C, [Leu^27]cyclo[Glu^22-Lys^26]-PTH-(1-31)-NH2] (H-SVSEIQLMHNLGKHLNSMERVEWLRKLLQDV-NH2; lactam 22-26)
- % of hypercalcemia ([1]; 4 months, weight cutoff of approximately 68 kg (FIG. 37)): less than 15%
- Sitting HR ([1]; 59 kg cut): 4.1
- Headache ([1]; 59 kg cut): 20.6%
- HyperCa > 2.65 ([1]; 59 kg cut): 22%
- HyperCa > 2.75 ([1]; 59 kg cut): 6%
- N + H ([1]; 59 kg cut): 12.7%
- Nausea ([1]; 59 kg cut): 31.7%
- Sitting HR ([1]; 68 kg cut): 3.1
- Headache ([1]; 68 kg cut): 12.8%
- HyperCa > 2.65 ([1]; 68 kg cut): 12.8%
- HyperCa > 2.75 ([1]; 68 kg cut): 7.7%
- N + H ([1]; 68 kg cut): 10.6%
- Nausea ([1]; 68 kg cut): 31.9%
- HyperCa > 2.65 ([1]; 68 kg cutoff, modeled): 14.8%
- HyperCa > 2.75 ([1]; 68 kg cutoff, modeled): 7.6%
- Mean [Ca] ([2]; 30 μg (4 months)): 0.040 mmol/L
- hypercalcemia seen at least once, % of group ([2]; 30 μg doses (placebo 5%)): 5%
- Sitting HR ([2]; 30 ug): 2.4
- Headache ([2]; 30 ug): 19.6%
- HyperCa > 2.65 ([2]; 30 ug): 4.5%
- HyperCa > 2.75 ([2]; 30 ug): 2.3%
- N + H ([2]; 30 ug): 7.8%
- Nausea ([2]; 30 ug): 25.5%
- Mean [Ca] ([2]; 45 μg (4 months)): 0.070 mmol/L
- Sitting HR ([2]; 45 ug): 4.0
- Headache ([2]; 45 ug): 21.8%
- HyperCa > 2.65 ([2]; 45 ug): 27.3%
- HyperCa > 2.75 ([2]; 45 ug): 9.1%
- N + H ([2]; 45 ug): 12.7%
- Nausea ([2]; 45 ug): 29.1%
- percent of abnormal serum calcium ([2]; doses up to and including 30 μg (FIG. 14)): no notable difference from placebo
- % Cortical Porosity ([3]; F, 10 μg/kg/day): 3.2 ± 0.97%
- % Cortical Porosity ([3]; F, 25 μg/kg/day): 4.0 ± 1.25%
- % Cortical Porosity ([3]; F, 80 μg/kg/day): 10.6 ± 0.35%
- % Cortical Porosity ([3]; M, 10 μg/kg/day): 3.7 ± 0.70%
- % Cortical Porosity ([3]; M, 25 μg/kg/day): 5.8 ± 1.82%
- % Cortical Porosity ([3]; M, 80 μg/kg/day): 16.4 ± 7.14 %
